The structures appear in SMILES notation.

Format in all cases: functional
Assay [1] concerns OVCAR-3. The assay can be described thus: Growth inhibition of human OVCAR3 cells at 10^-5 M incubated for 48 hrs by sulforhodamine B assay. The conditions noted are these: OVCAR-3, 48 h, read-out: GI.
Assay [2] concerns SK-MEL-2. The assay can be described thus: Growth inhibition of human SK-MEL-2 cells at 10^-5 M incubated for 48 hrs by sulforhodamine B assay. Conditions: SK-MEL-2, 48 h, read-out: GI. (The SRB assay estimates cell density from bound dye.)
The subject of assay [3] is MDA-MB-231. The assay can be described thus: Growth inhibition of human MDA-MB-231 cells at 10^-5 M incubated for 48 hrs by sulforhodamine B assay. Conditions: MDA-MB-231, 48 h, read-out: GI.
The test system of assay [4] is A498. The assay can be described thus: Growth inhibition of human A498 cells at 10^-5 M incubated for 48 hrs by sulforhodamine B assay. The conditions noted are these: A498, 48 h, read-out: GI.
Assay [5] deals with SNB-19. The assay can be described thus: Growth inhibition of human SNB19 cells at 10^-5 M incubated for 48 hrs by sulforhodamine B assay. Conditions: SNB-19, 48 h, read-out: GI.
The test system of assay [6] is SN12C. The assay can be described thus: Growth inhibition of human SN12C cells at 10^-5 M incubated for 48 hrs by sulforhodamine B assay. Conditions: read-out: GI.
Assay [7] relates to SK-OV-3. Put plainly: Growth inhibition of human SKOV3 cells at 10^-5 M incubated for 48 hrs by sulforhodamine B assay. Conditions: SK-OV-3, 48 h, read-out: GI.
The test system of assay [8] is HOP-92. The assay can be described thus: Growth inhibition of human HOP92 cells at 10^-5 M incubated for 48 hrs by sulforhodamine B assay. The conditions noted are these: HOP-92, 48 h, read-out: GI.
Assay [9] relates to SR. Put plainly: Growth inhibition of human SR cells at 10^-5 M incubated for 48 hrs by sulforhodamine B assay. Conditions: read-out: GI.
The test system of assay [10] is Malme-3M. Put plainly: Growth inhibition of human MALME-3M cells at 10^-5 M incubated for 48 hrs by sulforhodamine B assay. Conditions: read-out: GI.
Assay [11] has as its system RXF 393. The assay can be described thus: Growth inhibition of human RXF393 cells at 10^-5 M incubated for 48 hrs by sulforhodamine B assay. Conditions: RXF 393, 48 h, read-out: GI.
The test system of assay [12] is UACC-62. Put plainly: Growth inhibition of human UACC62 cells at 10^-5 M incubated for 48 hrs by sulforhodamine B assay. The conditions noted are these: UACC-62, 48 h, read-out: GI.
In assay [13] the test system is NCI-H23. The assay can be described thus: Growth inhibition of human NCI-H23 cells at 10^-5 M incubated for 48 hrs by sulforhodamine B assay. Conditions: NCI-H23, 48 h, read-out: GI.
The subject of assay [14] is M14. The assay can be described thus: Growth inhibition of human M14 cells at 10^-5 M incubated for 48 hrs by sulforhodamine B assay. Conditions: M14, 48 h, read-out: GI.
The subject of assay [15] is TK-10. The assay can be described thus: Growth inhibition of human TK10 cells at 10^-5 M incubated for 48 hrs by sulforhodamine B assay. The conditions noted are these: TK-10, 48 h, read-out: GI.
The test system of assay [16] is SF-539. The assay can be described thus: Growth inhibition of human SF539 cells at 10^-5 M incubated for 48 hrs by sulforhodamine B assay. The conditions noted are these: SF-539, 48 h, read-out: GI.
Assay [17] relates to PC-3. The assay can be described thus: Growth inhibition of human PC3 cells at 10^-5 M incubated for 48 hrs by sulforhodamine B assay. Conditions: PC-3, 48 h, read-out: GI.
Assay [18] relates to T47D. Put plainly: Growth inhibition of human T47D cells at 10^-5 M incubated for 48 hrs by sulforhodamine B assay. Conditions: read-out: GI.
The test system of assay [19] is OVCAR-8. Put plainly: Growth inhibition of human OVCAR8 cells at 10^-5 M incubated for 48 hrs by sulforhodamine B assay. Conditions: OVCAR-8, 48 h, read-out: GI.
In assay [20] the test system is K562. The assay can be described thus: Growth inhibition of human K562 cells at 10^-5 M incubated for 48 hrs by sulforhodamine B assay. Conditions: K562, 48 h, read-out: GI.
The test system of assay [21] is NCI-H322M. The assay can be described thus: Growth inhibition of human NCI-H322M cells at 10^-5 M incubated for 48 hrs by sulforhodamine B assay. The conditions noted are these: read-out: GI.

For the compound `O=C1Nc2c(sc3ccc(Cl)cc23)C(c2ccccc2O)N1` (configuration not stated), the inhibition of growth at 10 µM stood at 4.91% in assay [1]; 2.38% in assay [2]; 19.7% in assay [3]; 17.4% in assay [4]; 2.91% in assay [5]; 7.73% in [6]. The inhibition of growth at 10 µM in assay [7] is 4.45%; in [8], 21%; in [9], 19.1%; in assay [10], 15.8%; in assay [11], -4.74%; in [12], 13.9%. In addition, the inhibition of growth at 10 µM in assay [13] was 13.5%; in assay [14], 2.49%; in assay [15], -18.6%; in [16], 3.22%; in assay [17] it was 15.2%; in [18], 18.1%. Further, the inhibition of growth at 10 µM in [19] turned out to be 3.5%; in [20], 14.7%; in assay [21], 7.77%.
In the case of `O=[N+]([O-])c1cccc(C2c3sc4ccc(Cl)cc4c3N=C3NN=NN32)c1` (configuration not stated), the inhibition of growth at 10 µM in assay [1] is -0.5%; in [2] it was -23%; in assay [3], -4.1%; in assay [4], 18.1%; in assay [5], 7.13%; in assay [6], 9.98%. The inhibition of growth at 10 µM in [7] was 6.39%; in assay [8] it was 12.8%; in assay [9], -7.25%; in [10], -4.76%; in [11] it was 0%; in [12], 21.3%. For the same compound, the inhibition of growth at 10 µM in assay [13] is 1.39%; in assay [14], -10.9%; in assay [15], 35.8%; in assay [16], -8.51%; in assay [17], -11.3%; in assay [18], -8.85%. For the same compound, the inhibition of growth at 10 µM in assay [19] was -4.72%; in [20], -7.43%; in [21] it was -3.77%.
`N=C1Nc2c(sc3ccc(Cl)cc23)C(c2cccc(Br)c2)N1` (configuration not stated): the inhibition of growth at 10 µM is 0.84% in [1]; -8.11% in assay [2]; 12.6% in assay [3]; -4.39% in assay [4]; 2.72% in assay [5]; 6.52% in [6]. For the same compound, the inhibition of growth at 10 µM is 7.9% in assay [7]; 3.3% in assay [8]; 22.4% in [9]; 4.36% in [10]; -10.1% in assay [11]; 16.5% in assay [12]. Further, the inhibition of growth at 10 µM is 13.7% in [13]; 1.65% in assay [14]; -23.2% in assay [15]; -8.29% in assay [16]; 10.2% in [17]; 11.3% in [18]. Moreover, the figures for the inhibition of growth at 10 µM in [19], in assay [20] and in [21] were -2.43%, 13.7% and 10.3%, respectively.
For the compound `O=C1CC(=O)N(C2=Nc3c(sc4ccc(Cl)cc34)C(c3cccc([N+](=O)[O-])c3)N2)N1` (configuration not stated), the inhibition of growth at 10 µM in assay [1] was -6.5%; in assay [2] it was -3.18%; in assay [3], 11.8%; in assay [4], 6.96%; in [5], -9.31%; in assay [6], 18.3%. Besides, the inhibition of growth at 10 µM is 1.27% in assay [7]; -17.6% in assay [8]; -3.11% in assay [9]; -4.33% in assay [10]; 10.9% in assay [11]; 8.04% in assay [12]. Also, the inhibition of growth at 10 µM is 14.7% in assay [13]; -11.3% in assay [14]; -11.9% in assay [15]; 4.39% in assay [16]; 2.78% in assay [17]; 20.9% in assay [18]. The inhibition of growth at 10 µM in assay [19] is -4.71%; in assay [20], 0.75%; in assay [21] it was 2.7%.
In the case of `O=C1Nc2c(sc3ccc(Cl)cc23)C(c2cccc([N+](=O)[O-])c2)N1` (configuration not stated), the inhibition of growth at 10 µM is -1.08% in assay [1]; 2.08% in [2]; 12.5% in assay [3]; 15.5% in assay [4]; 5.92% in assay [5]; 7.07% in assay [6]. Also, the inhibition of growth at 10 µM in assay [7] was 3.88%; in assay [8] it was 17.8%; in [9], 20.8%; in [10], 16.6%; in [11] it was -8.11%; in [12], 8.84%. Moreover, the inhibition of growth at 10 µM in assay [13] is 9.8%; in [14] it was 2.62%; in [15], -4.8%; in assay [16] it was 8.46%; in assay [17] it was 10.8%; in assay [18], 16.3%. The inhibition of growth at 10 µM came out at 4.06% in assay [19], 12.9% in assay [20] and 10.4% in assay [21].
For `O=[N+]([O-])c1cccc(C2NC(=S)Nc3c2sc2ccc(Cl)cc32)c1` (configuration not stated), the inhibition of growth at 10 µM in assay [1] is 7.97%; in assay [2], -9.95%; in assay [3], 23.7%; in assay [4], 19.7%; in [5] it was 8.69%; in assay [6] it was 7.47%. Moreover, the inhibition of growth at 10 µM in assay [7] is 10.5%; in assay [8], 6.43%; in assay [9] it was 20.3%; in [10] it was 17.3%; in assay [11], -9.88%; in assay [12] it was 8.94%. Moreover, the inhibition of growth at 10 µM in assay [13] is 14.5%; in assay [14], 2.86%; in [15], -6.1%; in [16] it was 5.63%; in assay [17], 15.4%; in [18] it was 30.9%. Also, the inhibition of growth at 10 µM in assay [19] came out at 4.42%; in assay [20], 10.6%; in assay [21], 6.48%.
For the compound `O=C1Nc2c(sc3ccc(Cl)cc23)C(c2ccc3ccccc3c2)N1` (configuration not stated), the inhibition of growth at 10 µM in assay [1] came out at 3.83%; in assay [2], 0.12%; in [3], 14.8%; in [4], 15.2%; in [5], 2.49%; in assay [6], 10.9%. For the same compound, the inhibition of growth at 10 µM in assay [7] was 16.8%; in assay [8], 24.7%; in [9], 20.9%; in assay [10], 17.3%; in assay [11] it was -10.1%; in assay [12] it was -1.09%. Moreover, the inhibition of growth at 10 µM came to 11.7% in assay [13]; 6.72% in assay [14]; 15.4% in assay [15]; 3.67% in [16]; 7.25% in assay [17]; 24.2% in assay [18]. In addition, the inhibition of growth at 10 µM was 6.44% in assay [19], 14% in assay [20] and 9.44% in [21].

For the origin of these results see ChEMBL document CHEMBL4414672, “Synthesis of certain benzothieno[3,2-d]pyrimidine derivatives as a selective SIRT2 inhibitors” (Eur J Med Chem, 2020).
